Results taken from ChEMBL document CHEMBL1143517, “Synthesis and in vitro leishmanicidal activity of 2-(5-nitro-2-furyl) and 2-(5-nitro-2-thienyl)-5-substituted-1,3,4-thiadiazoles” (Bioorg Med Chem Lett, 2005).

Each molecule was assayed on Leishmania major (assay: In vitro inhibition of growth of Leishmania major promastigotes with the compound dissolved in DMSO using 3-H thymidine incorporation).
Type: functional, organism-based

First: O=C(c1ccccc1)N1CCN(c2nnc(-c3ccc([N+](=O)[O-])o3)s2)CC1
Second: O=[N+]([O-])c1ccc(-c2nnc(N3CCN(c4ccccc4)CC3)s2)o1
The IC50 of the first is 5-fold higher: 0.5 µM for the first, 0.1 µM for the second.

Going from `CC(=O)N1CCN(c2nnc(-c3ccc([N+](=O)[O-])o3)s2)CC1` to `CN1CCN(c2nnc(-c3ccc([N+](=O)[O-])o3)s2)CC1`, the IC50 rises from 1.1 µM to 7.3 µM (6.6-fold).

`O=[N+]([O-])c1ccc(-c2nnc(N3CCCCC3)s2)s1` and `O=[N+]([O-])c1ccc(-c2nnc(N3CCNCC3)s2)s1` cannot be ordered by IC50: > 150 µM for the first, > 150 µM for the second.

Compared with `O=[N+]([O-])c1ccc(-c2nnc(N3CCN(c4ccccc4)CC3)s2)s1`, `O=C(c1ccccc1)N1CCN(c2nnc(-c3ccc([N+](=O)[O-])s3)s2)CC1` is 9.5-fold lower in IC50: 106 µM for the first, 11.1 µM for the second. The second is the more potent here.

First: O=[N+]([O-])c1ccc(-c2nnc(N3CCNCC3)s2)o1
Second: O=[N+]([O-])c1ccc(-c2nnc(N3CCCCC3)s2)o1
The IC50 of the first is 2.8-fold higher: 8.9 µM for the first, 3.2 µM for the second. The second is the more potent here.

Compared with `CN1CCN(c2nnc(-c3ccc([N+](=O)[O-])s3)s2)CC1`, `CC(=O)N1CCN(c2nnc(-c3ccc([N+](=O)[O-])s3)s2)CC1` is 2.1-fold lower in IC50: 103 µM for the first, 48.5 µM for the second.

Going from `O=[N+]([O-])c1ccc(-c2nnc(N3CCOCC3)s2)o1` to `O=[N+]([O-])c1ccc(-c2nnc(N3CCOCC3)s2)s1`, the IC50 rises from 5.2 µM to 10.6 µM (2-fold).
